This note sets out measurements from the Deep4Chem optical property database.

Each structure is given as a SMILES string.

The nature of this data set: solvent given as SMILES.

On to `CC(=O)O[B-]1(OC(C)=O)OC(/C=C/c2ccccc2)=CC(/C=C/c2ccccc2)=[O+]1`, for which the absorption maximum by setting is: (in C1CCOC1) 422 nm; (in CC#N) 422 nm; (in CC(C)=O) 422 nm; (in CS(C)=O) 428 nm; (in Cc1ccccc1) 424 nm; (in ClC(Cl)Cl) 426 nm. For the same molecule, the absorption maximum (in ClCCl) amounted to 424 nm.

For the molecule `CC1=[N+]2C(=C(c3ccc(C=O)cc3)c3ccc(C)n3[B-]2(F)F)C=C1c1cc2n(c1)[B-](F)(F)[N+]1=CC=CC1=C2c1c(C)cc(C)cc1C`, the absorption maximum is 604.5 nm (in C1CCCCC1) and 604.5 nm (in CCOC(C)=O).

For the setting “in ClCCl”, `CCCCN1C(=O)C2=C(c3ccc(-c4ccc5c(c4)C(C)(C)c4ccccc4-5)cc3)[N-]C(=O)C2=C1c1ccc(-c2ccc3c(c2)C(C)(C)c2ccccc2-3)cc1` showed an absorption maximum of 594 nm.

Where the note is “in ClCCl”, `COc1ccccc1C1=[N+]2C(=Cc3c4c(c(-c5ccccc5OC)n3[B-]2(F)F)C2CCC4CC2)C2=C1C1CCC2CC1` returned an absorption maximum of 550 nm.

Take `CC(C)(C)c1ccc2c(c1)c1cc(C(C)(C)C)ccc1n2-c1ccc(N(c2ccc(-c3ccc(-c4ccc(-c5ccc(N(c6ccc(-n7c8ccc(C(C)(C)C)cc8c8cc(C(C)(C)C)ccc87)cc6)c6ccc(-n7c8ccc(C(C)(C)C)cc8c8cc(C(C)(C)C)ccc87)cc6)cc5)s4)s3)cc2)c2ccc(-n3c4ccc(C(C)(C)C)cc4c4cc(C(C)(C)C)ccc43)cc2)cc1`: for the setting “in ClCCl”, the absorption maximum was 418 nm.

Turning to `Cc1c(C)c(B(c2c(C)c(C)c(N3c4ccccc4Oc4ccccc43)c(C)c2C)c2c(C)c(C)c(N3c4ccccc4Oc4ccccc43)c(C)c2C)c(C)c(C)c1C#N`, for the setting “in c1ccc([Si](c2ccccc2)(c2ccc(-n3c4ccccc4c4ccccc43)cc2)c2ccc(-n3c4ccccc4c4ccccc43)cc2)cc1”, the absorption maximum is 408 nm.

Regarding `Brc1cnc(-c2ccc(N(c3ccccc3)c3ccccc3)cc2)s1`, the absorption maximum (in CO) worked out at 369 nm.

With `Cc1cc(C)c(B(c2cc(-c3c(C)cc(C)cc3C)sc2-c2sc(-c3c(C)cc(C)cc3C)cc2P(=O)(c2ccccc2)c2ccccc2)c2c(C)cc(C)cc2C)c(C)c1`, the absorption maximum (in CO) was found to be 370 nm.

Regarding `Nc1cc2nc3cc(F)c(F)cc3nc2cc1N`, the absorption maximum (in CCO) was determined as 433 nm.

`CN(C)c1ccc(/C=C/c2cc[n+](C)c3ccccc23)cc1`: the absorption maximum (in CC(C)=O) is listed as 540 nm, the absorption maximum (in ClCCl) was found to be 581 nm and the absorption maximum (in O) was determined as 510 nm.

Turning to `CCCCCCC1(CCCCCC)c2cc(-c3ccc(-c4ccc(-c5ccc(-c6ccc7c(c6)C(CCCCCC)(CCCCCC)c6cc(-n8c9ccc(-n%10c%11ccccc%11c%11ccccc%11%10)cc9c9cc(-n%10c%11ccccc%11c%11ccccc%11%10)ccc98)ccc6-7)s5)c5nsnc45)s3)ccc2-c2ccc(-n3c4ccc(-n5c6ccccc6c6ccccc65)cc4c4cc(-n5c6ccccc6c6ccccc65)ccc43)cc21`, the absorption maximum (in ClCCl) is recorded as 514 nm.

As to `COc1ccc(C2CC(c3ccc(O)cc3)=NN2c2ccc(S(N)(=O)=O)cc2)cc1` (configuration not stated), the absorption maximum is, setting by setting: (in C1CCOC1) 359 nm; (in C1COCCO1) 360 nm; (in CC#N) 358 nm; (in CC(C)O) 358 nm; (in CCO) 358 nm; (in CCOC(C)=O) 358 nm. The absorption maximum runs as follows: (in CN(C)C=O) 361 nm; (in CO) 357 nm; (in CS(C)=O) 364 nm; (in O) 360 nm.

For the setting “in Cc1ccccc1”, `Cc1cc(C)c(B(c2ccc(-n3c4ccccc4c4ccccc43)cc2)c2c(C)cc(C)cc2C)c(C)c1` registered an absorption maximum of 360 nm.

In the case of `CCOC(=O)COc1ccc(/C=C/C2=[N+]3C(=Cc4c5ccccc5c(-c5[nH]c(C)cc5C)n4[B-]3(F)F)C(C)=C2)cc1`, the absorption maximum (in ClCCl) was 680 nm.

With `O=C(O)CC[N+]1=c2cc3c(cc2CCC1)=Cc1c(c2cc4c5c(c2oc1=O)CCCN5CCC4)O3`, the absorption maximum by setting is: (in CC#N) 619 nm; (in CO) 617 nm; (in ClCCl) 637 nm; (in O) 608 nm.

For the molecule `CCCCC(CC)COc1cc(OCC(CC)CCCC)c2c#cc3ccc4oc5ccc(c#cc6cc(c#cc7ccc8oc9ccc(c#cc1c2)cc9c8c7)c(C(CCCC)OCCC)cc6C(CCCC)OCCC)cc5c4c3` (configuration not stated), the absorption maximum (in ClCCl) was determined as 328 nm.

As to `CC(=O)c1ccc2ccc3cccc4ccc1c2c34`, the absorption maximum is 384 nm (in C1CCOC1); 382 nm (in CC#N); 384 nm (in CCCCCC); 383 nm (in CCO); 384 nm (in CN(C)C=O); 385 nm (in CO). Moreover, the absorption maximum was determined as 387 nm (in Cc1ccccc1) and 385 nm (in ClCCl).

As to `CCN1\C(=C/C=C/C=C/C2=[N+](CC)c3ccc4cc(Br)ccc4c3C2(C)C)C(C)(C)c2c1ccc1cc(Br)ccc21`, the absorption maximum is, setting by setting: (in C1CCOC1) 683 nm; (in CC#N) 680 nm; (in CC(C)=O) 682 nm; (in CCO) 685 nm; (in CN(C)C=O) 686 nm; (in CO) 681 nm. For the same molecule, the absorption maximum reads like this: (in CS(C)=O) 689 nm; (in ClCCl) 697 nm.

As for `C[Si]1(C)O[Si](C)(C)c2cc3nc4ccc(Cl)cc4c(-c4ccccc4)c3cc2[Si](C)(C)O1`, the absorption maximum (in ClCCl) was determined as 373 nm.

As for `O=Cc1ccc(-c2ccc(-c3nc4ccccc4s3)c(O)c2)o1`, the absorption maximum by setting is: (in ClCCl) 373 nm; (in O) 326 nm.

Regarding `CCCCCCC1(CCCCCC)c2cc(-c3nc(-c4ccc5c(c4)C(CCCCCC)(CCCCCC)c4cc(-n6c7ccc(C(C)(C)C)cc7c7cc(C(C)(C)C)ccc76)ccc4-5)nc(-c4ccc5c(c4)C(CCCCCC)(CCCCCC)c4cc(-n6c7ccc(C(C)(C)C)cc7c7cc(C(C)(C)C)ccc76)ccc4-5)n3)ccc2-c2ccc(-n3c4ccc(C(C)(C)C)cc4c4cc(C(C)(C)C)ccc43)cc21`, under “in C1CCOC1”, the absorption maximum came to 382 nm.

Turning to `CC(C)[Si](C#Cc1c2cc3ccccc3cc2c(C#C[Si](C(C)C)(C(C)C)C(C)C)c2nc3c(nc12)C1c2ccccc2C3c2ccccc21)(C(C)C)C(C)C`, the absorption maximum (in CCCCCC) is reported as 542 nm.

With `CN(C)c1ccc2cc3c(cc2c1)OCCN=C3`, the absorption maximum is 353 nm (in C1CCOC1); 456 nm (in CC#N); 362 nm (in CC(C)O); 354 nm (in CCOC(C)=O); 362 nm (in CN(C)C=O); 359 nm (in CS(C)=O). Moreover, the absorption maximum is, setting by setting: (in Cc1ccccc1) 355 nm; (in ClCCl) 450 nm; (in O) 451 nm.

Regarding `O=C(O)CCCc1cc(C#Cc2ccccc2)c2ccc3c(C#Cc4ccccc4)cc(C#Cc4ccccc4)c4ccc1c2c34`, the absorption maximum reads like this: (in CS(C)=O) 451 nm; (in ClC(Cl)(Cl)Cl) 445 nm.

Take `Cn1c(=O)cc(C(=O)c2ccccc2)c2sc(-c3ccc(C(F)(F)F)cc3)cc21`: the absorption maximum (in CC#N) is 388 nm and the absorption maximum (in ClCCl) was 398 nm.

In the case of `C(=C\c1cccnc1)/c1ccc(Nc2ccccc2)cc1`, the absorption maximum reads like this: (in CC#N) 358 nm; (in CCCCCC) 352 nm.

As for `c1ccc2c(c1)Oc1ccccc1N2c1ccc2c(c1)c1ccccc1n1ccnc21`, under “in Cc1ccccc1”, the absorption maximum is reported as 376 nm.

Turning to `CC1=CC(/C=C/c2ccc(N(C)C)cc2)=[N+]2C1=C(c1ccccc1)c1c(C)cc(/C=C/c3ccc(N(C)C)cc3)n1[B-]2(F)F`, the absorption maximum (in ClC(Cl)Cl) was 700 nm.

`CC1=[N+]2C(=C(Oc3cc(C)c4c(c3)CC[C@@](C)(CCC[C@H](C)CCC[C@H](C)CCCC(C)C)O4)c3ccc(C)n3[B-]2(F)F)C=C1c1cc2n(c1)[B-](F)(F)[N+]1=CC=CC1=C2c1c(C)cc(C)cc1C`: the absorption maximum reads like this: (in C1CCCCC1) 570.5 nm; (in CCOC(C)=O) 575 nm.

For `Cc1sc(Cl)cc1-c1nc(-c2ccccc2)[nH]c1-c1cc(Cl)sc1C`, the absorption maximum (in CC#N) came out at 298 nm.

`CC(C)c1cccc(C(C)C)c1-n1c(=O)c2cc3nc(-c4ccccc4)c4cc5c(=O)n(-c6c(C(C)C)cccc6C(C)C)c(=O)c6cc7c(-c8ccccc8)nc8cc(c1=O)c2c1c3c4c(c56)c7c81` displayed an absorption maximum (in ClC(Cl)Cl) of 480 nm.

In the case of `c1ccc2c(c1)-c1ccccc1C21c2ccccc2N(c2ccc(-c3nc([C@]45CC6CC(C[C@@H](C6)C4)C5)nc([C@]45C[C@H]6C[C@@H](C[C@H](C6)C4)C5)n3)cc2)c2ccccc21`, the absorption maximum (in Cc1ccccc1) stood at 380.1 nm.

Turning to `COC(=O)CCC1=CC(C#Cc2cccs2)=[N+]2C1=Cc1c(CCC(=O)OC)cc(C#Cc3cccs3)n1[B-]2(F)F`, the absorption maximum (in ClCCl) is on record as 649 nm.

Consider `COCCOCCOCCOCC(COCCOCCOCCOC)Oc1cc(/C=C/c2ccc(/C=C/[N+](=O)[O-])cc2)c(OC(COCCOCCOCCOC)COCCOCCOCCOC)cc1/C=C/c1ccc(/C=C/[N+](=O)[O-])cc1`, for which the absorption maximum (in ClCCl) is 447 nm.

As to `COC(=O)C(Cc1ccc2oc(-c3ccncc3)nc2c1)NC(=O)OC(C)(C)C` (configuration not stated), the absorption maximum reads like this: (in CC1CCCCC1) 307.12 nm; (in CC#N) 302.86 nm; (in CO) 306.08 nm.

On to `CCCCn1c2ccc(-c3ccc4c(c3)c3c5c(ccc6ccc7ccccc7c65)ccc3n4CCCC)cc2c2c3c(ccc4ccc5ccccc5c43)ccc21`, for which the absorption maximum (in ClCCl) is reported as 336 nm.

As to `COc1cc2c(cc1-c1ccsc1)Cc1c3c(c4c(c1-2)-c1cc(OC)c(-c2ccsc2)cc1C4)C(=O)N(CCC(C)C)C3=O`, the absorption maximum (in C1CCOC1) is listed as 417 nm.

Take `Cc1ccccc1C1=C2C=c3c(oc4ccccc34)=[N+]2[B-](F)(F)n2c1cc1c3ccccc3oc12`: the absorption maximum stood at 586.5 nm (in C1CCCCC1), 582 nm (in CCOC(C)=O) and 580.5 nm (in CO).

`CC(C)[Si](C#Cc1c2nsnc2c(C#C[Si](C(C)C)(C(C)C)C(C)C)c2nc3c(ccc4ccccc43)nc12)(C(C)C)C(C)C` came in with an absorption maximum (in CCCCCC) of 607 nm.

On to `CC[n+]1c(-c2ccccc2)c2cc(NC(=O)N[C@H]3C[C@@H]([NH3+])[C@H](O)[C@@H](O)[C@@H]3O)ccc2c2ccc(NC(=O)N[C@@H]3C[C@H]([NH3+])[C@@H](O)[C@@H](O)[C@H]3O)cc21`, for which, for the setting “in O”, the absorption maximum stood at 438 nm.
